Measured values taken from patent publication EP4205737A1, “COMPOSITION FOR PREVENTION, AMELIORATION, OR TREATMENT OF INFLAMMATORY DISEASES OR IMMUNE DISEASES COMPRISING GANCAONIN N AS ACTIVE INGREDIENT” (UNIVERSITY-INDUSTRY COOPERATION GROUP OF KYUNG HEE …, priority 2020, dated 2022).

Experiments:
iNOS = test: Western blotting of iNOS in LPS-stimulated RAW264.7 cells; assay type: cell-based, murine; settings: LPS 1 µg/mL, 5 to 40 µM, as treatment concentration increased (FIG. 2C)
Procedure: (§1) RAW264.7 cells and A549 cells were dispensed into 6-well plates (1 × 10^6 cells/well) and cultured under conditions of 37°C and 5% CO2. After the culturing, the Raw 264.7 cells were treated with 1 µg/mL of lipopolysaccharide (LPS) and the A549 cells were treated with 5 µg/mL of lipopolysaccharide (LPS) and with 5 µM to 40 µM of gancaonin N, and the cells were cultured for 24 hours or 6 hours. Then, the cells were lysed using a lysis buffer. In addition, the left lung extracted from each mouse was lysed using RIPA buffer. SDS-PAGE electrophoresis was performed on the cell and tissue lysates to separate proteins by side, and 5% bovine serum albumin was used for culturing and for blocking antibodies against PGE2 (1:500), IL-1β (1:500), IL-6 (1:500), TNF-α (1:500), i-NOS (1:500), COX-2 (1:1000), P-ERK1/2 (1:1000), ERK1/2 (1:3000), P-p38 (1:1000), p38 (1:3000), NF-κB p65 (1:1000), Lamin B1 (1:1000), and β-actin (1: 5,000).
(§2) To investigate the anti-inflammatory effect of gancaonin N, the inventors treated Raw264.7 cells with LPS and Gancaonin N, as described in Examples 1 to 6, and evaluated the expression level of inflammation-inducing factors. Thus, the inhibitory effect of gancaonin N on inflammation-related factors was specifically confirmed.

[1] = system: extracellular signal-regulated kinase (ERK); test: MAPK/NF-κB signaling pathway: ERK in LPS-stimulated A549 cells; assay type: cell-based, human
Procedure: as §1
To identify through which pathway the anti-inflammatory response occurs, the role of gancaonin N in the MAPK/NF-κB signaling pathway was investigated. […]

PGE2 = test: Western blotting of PGE2 in LPS-stimulated RAW264.7 cells; assay type: cell-based, murine; settings: LPS 1 µg/mL, 5 to 40 µM, as treatment concentration increased (FIG. 2B)
Procedure: as §1, §2

[2] = system: LPS-induced acute lung injury (ALI) mouse model; test: Bronchoalveolar lavage fluid analysis (inflammatory cell infiltration), LPS-induced acute lung injury mouse model; assay type: in vivo, BALB/c mice; settings: mice, 10 mg/kg or 30 mg/kg intraperitoneally one hour before intratracheal LPS
Procedure: 25 6-week-old female BALB/c mice having a weight of 18g to 20 g were purchased from BioLink (DBL CO., Eumseong, Chungcheongbuk-do, Korea), and reared in the animal laboratory of KyungHee University. To establish an LPS-induced acute lung injury model, all the mice were divided into five groups each group of which consisted of 5 mice, and the five groups were referred to as control, vehicle (only LPS treatment), gancaonin N (10 mg/kg), gancaonin N (30 mg/kg), and dexamethasone (3 mg/kg). Gancaonin N was intraperitoneally injected at a dose of 10 mg/kg or 30 mg/kg, and dexamethasone was intraperitoneally injected at a dose of 3 mg/kg as a positive control group. In addition, the control and vehicle groups were intraperitoneally injected with 4% DMSO in which gancaonin N was dissolved. […]
Bronchoalveolar lavage fluid (BALF) was obtained after anesthetizing each mouse with intranasal isoflurane. […] The cells were stained with the Diff-Quik kit (Sysmex, Kobe, Japan), observed under a microscope, and sorted, and then the total cells and neutrophils were counted.
The mouse models prepared as described in Examples 1 to 3 were treated with LPS to induce acute lung injury (ALI), and then the anti-inflammatory effect of gancaonin N was specifically evaluated for the mice of five groups (control, vehicle (only LPS), gancaonin N (10 mg/kg), gancaonin N (30 mg/kg), and dexamethasone (3 mg/kg)), […]

COX-2 = test: Western blotting of COX-2 in lung of LPS-induced acute lung injury mouse model; assay type: in vivo, BALB/c mice; settings: mice, 10 mg/kg or 30 mg/kg intraperitoneally, LPS-induced ALI, Western blotting (FIG. 8)
Procedure: 25 6-week-old female BALB/c mice having a weight of 18g to 20 g were purchased from BioLink (DBL CO., Eumseong, Chungcheongbuk-do, Korea), and reared in the animal laboratory of KyungHee University. To establish an LPS-induced acute lung injury model, all the mice were divided into five groups each group of which consisted of 5 mice, and the five groups were referred to as control, vehicle (only LPS treatment), gancaonin N (10 mg/kg), gancaonin N (30 mg/kg), and dexamethasone (3 mg/kg). Gancaonin N was intraperitoneally injected at a dose of 10 mg/kg or 30 mg/kg, and dexamethasone was intraperitoneally injected at a dose of 3 mg/kg as a positive control group. In addition, the control and vehicle groups were intraperitoneally injected with 4% DMSO in which gancaonin N was dissolved. Then, 10 µg/50 µL of LPS was intratracheally administered to the mice except for the control group one hour later (the control group mice were administered 50 µL of PBS), and the mice were sacrificed 12 hours later.
RAW264.7 cells and A549 cells were dispensed into 6-well plates (1 × 10^6 cells/well) and cultured under conditions of 37°C and 5% CO2. […]
To specifically investigate whether gancaonin N can inhibit pro-inflammatory factors in a mouse model, the protein expression levels of COX-2, IL-1β, and TNF-α were measured by Western blotting as described in Examples 1 to 6 above.

p65 = test: MAPK/NF-κB signaling pathway: p65 in LPS-stimulated A549 cells; assay type: cell-based, human
Procedure: as §1
A549 cells were dispensed into 6-well plates (1 × 10^4 cells/well) and cultured under conditions of 37°C and 5% CO2. After the culturing, the A549 cells were treated with of 5 ug/mL of lipopolysaccharide (LPS) and with 5 µM to 40 µM of gancaonin N, and the cells were then cultured for 6 hours. […] For fluorescence observation, EVOSR Cell Imaging systems (Thermo Fisher Scientific, Waltham, MA, USA) were used. […]

## COc1ccc(-c2coc3cc(O)c(CC=C(C)C)c(O)c3c2=O)c(O)c1 [gancaonin N, 5,7-dihydroxy-3-(2-hydroxy-4-methoxyphenyl)-6-(3-methylbut-2-enyl)chromen-4-one]
iNOS
  expression level of protein of iNOS: significantly decreased
[1]; 5µM to 40 µM 2 hours before LPS treatment (FIG. 5A)
  activity/protein expression levels of ERK: significantly reduced
[1]; LPS, tested 5µM to 40 µM
  amount of gancaonin N at which the inhibitory effect on the activity/protein expression levels of ERK was most excellent: 40 µM
PGE2
  expression level of protein of PGE2: significantly decreased
[2]; sacrificed 12 hours later (FIG. 6B)
  cell count in bronchoalveolar lavage fluid (BALF): significantly reduced
[2]; sacrificed 12 hours later (FIG. 6C)
  neutrophil count in bronchoalveolar lavage fluid (BALF): significantly reduced
COX-2
  protein expression level of COX-2 in lung: significantly reduced
p65; 5µM to 40 µM 2 hours before LPS treatment (FIG. 5C)
  activity/protein expression levels of p65: significantly reduced
p65; LPS, tested 5µM to 40 µM
  amount of gancaonin N at which the inhibitory effect on the activity/protein expression levels of p65 was most excellent: 40 µM
